Reference: patent US10745382B2 (BRISTOL-MYERS SQUIBB COMPANY, priority 2015, dated 2020)

Each molecule was assayed against T1, PD-1/PD-L1 (Homo sapiens, UniProt Q9NZQ7) (assay: PD-1/PD-L1 Homogenous Time-Resolved Fluorescence (HTRF) binding assay). Conditions: PD-L1-His 10 nM, PD-1-Ig 20 nM; value given as range class; read-out: Range or IC50.
T1 construct: made in house; host or cells: HEK293T
Method in brief: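 Read-out is time-resolved FRET between europium cryptate-labelled anti-Ig (1 nM final) and APC-labelled anti-His (20 nM final), both dispensed onto the binding mix. Assay buffer: dPBS containing 0.1% bovine serum albumin and 0.05% Tween-20.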

T1 sequence (Q9NZQ7 with tags, fused parts or gaps): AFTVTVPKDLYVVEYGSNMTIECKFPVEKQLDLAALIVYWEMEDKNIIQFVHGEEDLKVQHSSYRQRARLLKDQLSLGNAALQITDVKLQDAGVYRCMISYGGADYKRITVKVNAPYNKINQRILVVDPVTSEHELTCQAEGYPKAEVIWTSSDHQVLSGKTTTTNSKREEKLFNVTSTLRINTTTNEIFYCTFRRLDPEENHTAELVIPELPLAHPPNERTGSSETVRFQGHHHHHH

**Q.** Which IC50 does the source give for `Cc1c(COc2cc(OCc3cncc(C#N)c3)c(CN[C@@](C)(CO)C(=O)O)cc2Cl)cccc1-c1cccc(OCCCN2CCC[C@H](C(=O)O)C2)c1C` [Example 2264, (3S)-1-(3-(3′-((4-(((S)-2-carboxy-1-hydroxypropan-2-ylamino)methyl)-2-chloro-5-((5-cyanopyridin-3-yl)methoxy)phenoxy)methyl)-2,2′-dimethylbiphenyl-3-yloxy)propyl)piperidine-3-carboxylic Acid] here?
**A.** The IC50 was 0.21 to 10 nM.

**Q.** `Cc1c(COc2cc(OCc3cncc(C#N)c3)c(CN3CCCC[C@H]3C(=O)O)cc2Cl)cccc1-c1cccc(OCCCN2CCCC(C(N)=O)C2)c1C` (stereo partly drawn) [Example 2207, (2S)-1-(4-((3′-(3-(3-carbamoylpiperidin-1-yl)propoxy)-2,2′-dimethylbiphenyl-3-yl)methoxy)-5-chloro-2-((5-cyanopyridin-3-yl)methoxy)benzyl)piperidine-2-carboxylic Acid] was tested. Which IC50 did it give?
**A.** The IC50 was 0.21 to 10 nM.

**Q.** Which IC50 does the source give for `Cc1c(COc2cc(OCc3cncc(C#N)c3)c(CNC(CO)CO)cc2Cl)cccc1-c1cccc(OC[C@H]2CCNC2)c1C` [Example 2323, (S)-5-((4-chloro-2-(((1,3-dihydroxypropan-2-yl)amino)methyl)-5-((2,2′-dimethyl-3′-(pyrrolidin-3-ylmethoxy)-[1,1′-biphenyl]-3-yl)methoxy)phenoxy)methyl)nicotinonitrile] here?
**A.** The IC50 was 0.21 to 10 nM.

**Q.** For `Cc1c(COc2cc(OCc3cncc(C#N)c3)c(CN[C@@H](CO)C(=O)O)cc2Cl)cccc1-c1cccc(OCCCN2CCC(O)C2)c1C` (stereo in doubt) [Example 3004, (S)-2-((5-chloro-2-((5-cyanopyridin-3-yl)methoxy)-4-((3′-(3-((R)-3-hydroxypyrrolidin-1-yl)propoxy)-2,2′-dimethyl-[1,1′-biphenyl]-3-yl)methoxy)benzyl)amino)-3-hydroxypropanoic Acid], which IC50 is on record?
**A.** Its IC50 is 0.21 to 10 nM.

**Q.** For `Cc1ccc(OCCCN2CC[C@@H](O)C2)c(C)c1-c1cccc(COc2cc(OCc3cncc(C#N)c3)c(CN[C@](C)(CO)C(=O)O)cc2Cl)c1C` [Example 3029, (2R)-2-((5-chloro-2-((5-cyanopyridin-3-yl)methoxy)-4-((3′-(3-((R)-3-hydroxypyrrolidin-1-yl)propoxy)-2,2′,6′-trimethyl-[1,1′-biphenyl]-3-yl)methoxy)benzyl)amino)-3-hydroxy-2-methylpropanoic Acid], which IC50 is on record?
**A.** Its IC50 is 0.21 to 10 nM.

**Q.** With `CNC(=O)c1cccc(-c2cccc(COc3cc(OCc4cc(F)cc(F)c4)c(CN4CCCC[C@H]4C(=O)O)cc3Cl)c2C)c1C` [Example 4023, (S)-1-(5-chloro-2-((3,5-difluorobenzyl)oxy)-4-((2,2′-dimethyl-3′-(methylcarbamoyl)-[1,1′-biphenyl]-3-yl)methoxy)benzyl)piperidine-2-carboxylic Acid] as the molecule, how does the IC50 read?
**A.** Its IC50 is 100 to 2000 nM.

**Q.** How did the IC50 turn out when `Cc1c(COc2cc(OCc3cncc(C(N)=O)c3)c(CN[C@H](CO)C(=O)O)cc2Cl)cccc1-c1cccc(OCCCN2CCC(CO)(C(=O)O)C2)c1C` (stereo partly drawn) [Example 1053, 1-(3-((3′-((5-((5-carbamoylpyridin-3-yl)methoxy)-4-((((R)-1-carboxy-2-hydroxyethyl)amino)methyl)-2-chlorophenoxy)methyl)-2,2′-dimethyl-[1,1′-biphenyl]-3-yl)oxy)propyl)-3-(hydroxymethyl)pyrrolidine-3-carboxylic Acid] was run?
**A.** Its IC50 is 0.21 to 10 nM.

**Q.** `Cc1ccc(COc2cc(OCc3cccc(-c4cccc(OCCCN5CC[C@@H](O)C5)c4C)c3C)c(Cl)cc2CN2CCCC[C@H]2C(=O)O)cc1C` [Example 4508, (S)-1-(5-chloro-2-((3,4-dimethylbenzyl)oxy)-4-((3′-(3-((R)-3-hydroxypyrrolidin-1-yl)propoxy)-2,2′-dimethyl-[1,1′-biphenyl]-3-yl)methoxy)benzyl)piperidine-2-carboxylic Acid] was tested. Which IC50 did it give?
**A.** Its IC50 is 0.21 to 10 nM.

**Q.** How did the IC50 turn out when `Cc1c(COc2cc(OCc3cncc(S(C)(=O)=O)c3)c(CN[C@H](CO)C(=O)O)cc2Cl)cccc1-c1cccc(OCCCN2CCC(O)(C(=O)O)CC2)c1C` [Example 1040, (R)-1-(3-((3′-((4-(((1-carboxy-2-hydroxyethyl)amino)methyl)-2-chloro-5-((5-(methylsulfonyl)pyridin-3-yl)methoxy)phenoxy)methyl)-2,2′-dimethyl-[1,1′-biphenyl]-3-yl)oxy)propyl)-4-hydroxypiperidine-4-carboxylic Acid] was run?
**A.** The IC50 was 0.21 to 10 nM.

**Q.** With `Cc1c(COc2cc(OCc3cncc(C#N)c3)c(CNC(CO)(CO)CO)cc2Cl)cccc1-c1cccc(OCCCN2CCCC(CO)C2)c1C` (stereo not drawn) [Example 2284, 5-((4-chloro-2-(((1,3-dihydroxy-2-(hydroxymethyl)propan-2-yl)amino)methyl)-5-((3′-(3-(3-(hydroxymethyl)piperidin-1-yl)propoxy)-2,2′-dimethyl-[1,1′-biphenyl]-3-yl)methoxy)phenoxy)methyl)nicotinonitrile] as the molecule, how does the IC50 read?
**A.** The IC50 was 0.21 to 10 nM.

**Q.** How did the IC50 turn out when `Cc1c(COc2cc(OCc3cncc(C#N)c3)c(CO)cc2Cl)cccc1-c1cc(OCCCN2CC[C@@H](O)C2)cc(OCCCN2CC[C@@H](O)C2)c1` [Example 3063, 5-((5-((3′,5′-bis(3-((R)-3-hydroxypyrrolidin-1-yl)propoxy)-2-methyl-[1,1′-biphenyl]-3-yl)methoxy)-4-chloro-2-(hydroxymethyl)phenoxy)methyl)nicotinonitrile] was run?
**A.** Its IC50 is 2010 to 10000 nM.

**Q.** Which IC50 does the source give for `CC(=O)N[C@@H]1CCN(CCCOc2cccc(-c3cccc(COc4cc(OCc5cncc(C#N)c5)c(CN[C@@](C)(CO)C(=O)O)cc4Cl)c3C)c2C)C1` [Example 2270, (2S)-2-(4-((3′-(3-((R)-3-acetamidopyrrolidin-1-yl)propoxy)-2,2′-dimethylbiphenyl-3-yl)methoxy)-5-chloro-2-((5-cyanopyridin-3-yl)methoxy)benzylamino)-3-hydroxy-2-methylpropanoic Acid] here?
**A.** Its IC50 is 0.21 to 10 nM.

**Q.** For `N#Cc1cncc(COc2cc(OCc3cccc(-c4cccc(OCCCN5CC[C@@H](O)C5)c4Cl)c3Cl)c(Cl)cc2CN2CCCC[C@H]2C(=O)O)c1` [Example 2106, (S)-1-(5-chloro-2-((5-cyanopyridin-3-yl)methoxy)-4-((2,2′-dichloro-3′-(3-((R)-3-hydroxypyrrolidin-1-yl)propoxy)-[1,1′-biphenyl]-3-yl)methoxy)benzyl)piperidine-2-carboxylic Acid], which IC50 is on record?
**A.** The IC50 was 0.21 to 10 nM.

**Q.** Which IC50 does the source give for `Cc1cc(OCc2cccc(-c3cccc(OCCCN4CC[C@@H](O)C4)c3C)c2C)cc(OCc2cncc(C#N)c2)c1CNC(C)(CO)CO` [Example 4088, (R)-5-((2-(((1,3-dihydroxy-2-methylpropan-2-yl)amino)methyl)-5-((3′-(3-(3-hydroxypyrrolidin-1-yl)propoxy)-2,2′-dimethyl-[1,1′-biphenyl]-3-yl)methoxy)-3-methylphenoxy)methyl)nicotinonitrile] here?
**A.** Its IC50 is 0.21 to 10 nM.

**Q.** Which IC50 does the source give for `CO[C@@H]1CCN(CCCOc2cccc(-c3cccc(COc4cc(OCc5cncc(C#N)c5)c(CN5CCCC[C@H]5C(=O)O)cc4Cl)c3C)c2C)C1` [Example 2252, (2S)-1-(5-chloro-2-((5-cyanopyridin-3-yl)methoxy)-4-((3′-(3-((R)-3-methoxypyrrolidin-1-yl)propoxy)-2,2′-dimethylbiphenyl-3-yl)methoxy)benzyl)piperidine-2-carboxylic Acid] here?
**A.** Its IC50 is 0.21 to 10 nM.

**Q.** For `COC(=O)C1(O)CCN(CCCOc2cccc(-c3cccc(COc4cc(OCc5cncc(C#N)c5)c(CN[C@H](CO)C(=O)O)cc4Cl)c3C)c2)CC1` [Example 1028, (R)-2-((5-chloro-2-((5-cyanopyridin-3-yl)methoxy)-4-((3′-(3-(4-hydroxy-4-(methoxycarbonyl)piperidin-1-yl)propoxy)-2-methyl-[1,1′-biphenyl]-3-yl)methoxy)benzyl)amino)-3-hydroxypropanoic Acid], which IC50 is on record?
**A.** Its IC50 is 0.21 to 10 nM.

**Q.** `Cc1c(COc2cc(OCc3cncc(C#N)c3)c(CN3CCCC[C@H]3C(=O)O)cc2Cl)cccc1-c1cccc(OCCCN2CCOC(c3ccccc3)C2)c1C` (stereo partly drawn) [Example 3056, (2S)-1-(5-chloro-2-((5-cyanopyridin-3-yl)methoxy)-4-((2,2′-dimethyl-3′-(3-(2-phenylmorpholino)propoxy)-[1,1′-biphenyl]-3-yl)methoxy)benzyl)piperidine-2-carboxylic Acid] was tested. Which IC50 did it give?
**A.** Its IC50 is 0.21 to 10 nM.

**Q.** For `Cc1c(COc2cc(OCc3cncc(C#N)c3)c(CN[C@@H](CC(C)C)C(=O)O)cc2Cl)cccc1-c1cccc(OCCCN2CC[C@@H](O)C2)c1C` [Example 4153, (5-chloro-2-((5-cyanopyridin-3-yl)methoxy)-4-((3′-(3-((R)-3-hydroxypyrrolidin-1-yl)propoxy)-2,2′-dimethyl-[1,1′-biphenyl]-3-yl)methoxy)benzyl)-L-leucine], which IC50 is on record?
**A.** The IC50 was 0.21 to 10 nM.

**Q.** How did the IC50 turn out when `COC(=O)C1(C)CCCCN1Cc1cc(Cl)c(OCc2cccc(-c3cccc(OCCCN4CC[C@@H](O)C4)c3Cl)c2C)cc1OCc1cncc(C#N)c1` (stereo partly drawn) [Example 3070, methyl 1-(5-chloro-4-((2′-chloro-3′-(3-((R)-3-hydroxypyrrolidin-1-yl)propoxy)-2-methyl-[1,1′-biphenyl]-3-yl)methoxy)-2-((5-cyanopyridin-3-yl)methoxy)benzyl)-2-methylpiperidine-2-carboxylate] was run?
**A.** Its IC50 is 0.21 to 10 nM.

**Q.** How did the IC50 turn out when `Cc1c(COc2cc(OCc3cncc(C#N)c3)c(CN(C)C(CO)CO)cc2Cl)cccc1-c1cccc(OCCCN2CC[C@@H](O)C2)c1C` [Example 2325, (R)-5-((4-chloro-2-(((1,3-dihydroxypropan-2-yl)(methyl)amino)methyl)-5-((3′-(3-(3-hydroxypyrrolidin-1-yl)propoxy)-2,2′-dimethyl-[1,1′-biphenyl]-3-yl)methoxy)phenoxy)methyl)nicotinonitrile] was run?
**A.** Its IC50 is 0.21 to 10 nM.

**Q.** For `Cc1c(COc2cc(OCc3cncc(C#N)c3)c(CN3CCCC[C@H]3C(=O)O)cc2Cl)cccc1-c1cccc(OCCCN2CCC[C@@H](C(=O)O)C2)c1C` [Example 2205, (2S)-1-(4-((3′-(3-((R)-3-carboxypiperidin-1-yl)propoxy)-2,2′-dimethylbiphenyl-3-yl)methoxy)-5-chloro-2-((5-cyanopyridin-3-yl)methoxy)benzyl)piperidine-2-carboxylic Acid], which IC50 is on record?
**A.** The IC50 was 0.21 to 10 nM.
